How the values were obtained:
[1] = test system: Phaeosphaeria nodorum (Septoria nodorum); assay: Phaeosphaeria nodorum (Septoria nodorum) / wheat / leaf disc preventative (glume blotch); format: in vivo; details: Parastagonospora nodorum, foliar, 120 h, wheat leaf segments cv. Kanzler, inoculated 2 days after application, assessed 5-7 days after application, compared to untreated, read-out: disease control
Method: Phaeosphaeria nodorum (Septoria nodorum)/Wheat/Leaf Disc Preventative (Glume Blotch) Wheat leaf segments cv. Kanzler are placed on agar in a multiwell plate (24-well format) and sprayed with the formulated test compound diluted in water. The leaf disks are inoculated with a spore suspension of the fungus 2 days after application. The inoculated test leaf disks are incubated at 20° C. and 75% rh under a light regime of 12 h light/12 h darkness in a climate cabinet and the activity of a compound is assessed as percent disease control compared to untreated when an appropriate level of disease damage appears in untreated check leaf disks (5-7 days after application).

[2] = test system: Mycosphaerella arachidis (Cercospora arachidicola); assay: Mycosphaerella arachidis (Cercospora arachidicola) / liquid culture (early leaf spot); format: cell-based; details: PDB potato dextrose broth, 24° C., 4-5 days after application, compared to untreated checks, read-out: disease control (inhibition of growth, photometric)
Method: Mycosphaerella arachidis (Cercospora arachidicola)/Liquid Culture (Early Leaf Spot) Conidia of the fungus from cryogenic storage are directly mixed into nutrient broth (PDB potato dextrose broth). After placing a (DMSO) solution of test compound into a microtiter plate (96-well format), the nutrient broth containing the fungal spores is added. The test plates are incubated at 24° C. and the inhibition of growth is determined photometrically 4-5 days after application.

[3] = test system: Glomerella Lagenarium (Colletotrichum lagenarium); assay: Glomerella lagenarium (Colletotrichum lagenarium) / liquid culture (anthracnose); format: cell-based; details: Colletotrichum orbiculare, PDB potato dextrose broth, 24° C., 3 to 4 days after application, compared to untreated checks, read-out: disease control (inhibition of growth, photometric)
Method: Glomerella Lagenarium (Colletotrichum lagenarium)/Liquid Culture (Anthracnose) Conidia of the fungus from cryogenic storage are directly mixed into nutrient broth (PDB potato dextrose broth). After placing a (DMSO) solution of test compound into a microtiter plate (96-well format), the nutrient broth containing the fungal spores is added. The test plates are incubated at 24° C. and the inhibition of growth is measured photometrically 3 to 4 days after application.

[4] = test system: Botryotinia fuckeliana (Botrytis cinerea); assay: Botryotinia fuckeliana (Botrytis cinerea) / liquid culture (gray mould); format: cell-based; details: Vogels broth, 24° C., 3-4 days after application, compared to untreated checks, read-out: disease control (inhibition of growth, photometric)
Method: Botryotinia fuckeliana (Botrytis cinerea)/Liquid Culture (Gray Mould) Conidia of the fungus from cryogenic storage are directly mixed into nutrient broth (Vogels broth). After placing a (DMSO) solution of test compound into a microtiter plate (96-well format), the nutrient broth containing the fungal spores is added. The test plates are incubated at 24° C. and the inhibition of growth is determined photometrically 3-4 days after application.

[5] = test system: Mycosphaerella Graminicola (Septoria tritici); assay: Mycosphaerella graminicola (Septoria tritici) / liquid culture (Septoria blotch); format: cell-based; details: Zymoseptoria tritici, PDB potato dextrose broth, 24° C., 4 to 5 days after application, compared to untreated checks, read-out: disease control (inhibition of growth, photometric)
Method: Mycosphaerella Graminicola (Septoria tritici)/Liquid Culture (Septoria Blotch) Conidia of the fungus from cryogenic storage are directly mixed into nutrient broth (PDB potato dextrose broth). After placing a (DMSO) solution of test compound into a microtiter plate (96-well format), the nutrient broth containing the fungal spores is added. The test plates are incubated at 24° C. and the inhibition of growth is determined photometrically 4 to 5 days after application.

[6] = test system: Puccinia Recondite f. Sp. Tritici; assay: Puccinia recondita f. sp. tritici / wheat / leaf disc preventative (brown rust); format: in vivo; details: foliar, wheat leaf segments cv. Kanzler, inoculated 1 day after application, assessed 7-9 days after application, compared to untreated, read-out: disease control
Method: Puccinia Recondite f. Sp. Tritici/Wheat/Leaf Disc Preventative (Brown Rust) Wheat leaf segments cv. Kanzler are placed on agar in multiwell plates (24-well format) and sprayed with the formulated test compound diluted in water. The leaf disks are inoculated with a spore suspension of the fungus 1 day after application. The inoculated leaf segments are incubated at 19° C. and 75% rh under a light regime of 12 h light/12 h darkness in a climate cabinet and the activity of a compound is assessed as percent disease control compared to untreated when an appropriate level of disease damage appears in untreated check leaf segments (7-9 days after application).

[7] = test system: Magnaporthe grisea (Pyricularia oryzae); assay: whole plant or invertebrate; format: in vivo; details: foliar, read-out: disease control
[8] = test system: Monographella nivalis (Microdochium nivale); assay: Monographella nivalis (Microdochium nivale) / liquid culture (foot rot cereals); format: cell-based; details: PDB potato dextrose broth, 24° C., 4-5 days after application, compared to untreated checks, read-out: disease control (inhibition of growth, photometric)
Method: Monographella nivalis (Microdochium nivale)/Liquid Culture (Foot Rot Cereals) Conidia of the fungus from cryogenic storage are directly mixed into nutrient broth (PDB potato dextrose broth). After placing a (DMSO) solution of test compound into a microtiter plate (96-well format), the nutrient broth containing the fungal spores is added. The test plates are incubated at 24° C. and the inhibition of growth is determined photometrically 4-5 days after application.

COc1ccc(C(c2ccc(OC)cc2)N(C)OC(=O)[C@H](C)NC(=O)c2nccc(OC)c2O)cc1 [I.ab.01, [bis(4-methoxy phenyl)methyl-methyl-amino] (2S)-2-[(3-hydroxy-4-methoxy-pyridine-2-carbonyl)amino]propanoate]
≥ 80%: pest or weed control at 200 ppm [1] | inhibition at 200 ppm [2] | inhibition at 200 ppm [3] | inhibition at 200 ppm [4] | inhibition at 200 ppm [5] | pest or weed control at 200 ppm [6]

COc1ccnc(C(=O)N[C@@H](C)C(=O)ON(C)C(c2ccccc2)C2CCCC2)c1O (stereo partly drawn) [I.h.01, [[cyclopentyl(phenyl)methyl]-methyl-amino] (2S)-2-[(3-hydroxy-4-methoxy-pyridine-2-carbonyl)amino] propanoate]
≥ 80%: pest or weed control at 200 ppm [1] | pest or weed control at 200 ppm [7] | inhibition at 200 ppm [2] | inhibition at 200 ppm [3] | inhibition at 200 ppm [5] | pest or weed control at 200 ppm [6]

COc1ccnc(C(=O)N[C@@H](C)C(=O)ON(C)C(C)(c2ccccc2)c2ccccc2)c1O [I.m.02, [1,1-diphenylethyl (methyl)amino] (2S)-2-[(3-hydroxy-4-methoxy-pyridine-2-carbonyl)amino] propanoate]
≥ 80%: pest or weed control at 200 ppm [1] | pest or weed control at 200 ppm [7] | inhibition at 200 ppm [2] | inhibition at 200 ppm [5] | pest or weed control at 200 ppm [6]

CCC(c1ccccc1)(c1ccccc1)N(C)OC(=O)[C@H](C)NC(=O)c1nccc(OC)c1O [I.m.03, [1,1-diphenylpropyl (methyl)amino] (2S)-2-[(3-hydroxy-4-methoxy-pyridine-2-carbonyl)amino]propanoate]
≥ 80%: inhibition at 200 ppm [8] | pest or weed control at 200 ppm [1] | inhibition at 200 ppm [2] | inhibition at 200 ppm [4] | inhibition at 200 ppm [5]

COc1ccnc(C(=O)N[C@@H](C)C(=O)ON(C)C(c2ccccc2)c2ccc(F)cc2)c1O (stereo partly drawn) [I.n.01, [[(4-fluorophenyl)-phenyl-methyl]-methyl-amino] (2S)-2-[(3-hydroxy-4-methoxy-pyridine-2-carbonyl)amino]propanoate]
≥ 80%: inhibition at 200 ppm [8] | pest or weed control at 200 ppm [1] | pest or weed control at 200 ppm [7] | inhibition at 200 ppm [2] | inhibition at 200 ppm [3] | inhibition at 200 ppm [5] | pest or weed control at 200 ppm [6]

COc1ccnc(C(=O)N[C@@H](C)C(=O)ON(C)C(c2ccc(F)cc2)c2ccc(F)cc2)c1O [I.s.01, [bis(4-fluorophenyl)methyl-methyl-amino] (2S)-2-[(3-hydroxy-4-methoxy-pyridine-2-carbonyl)amino]propanoate]
≥ 80%: inhibition at 200 ppm [8] | pest or weed control at 200 ppm [1] | pest or weed control at 200 ppm [7] | inhibition at 200 ppm [2] | inhibition at 200 ppm [3] | inhibition at 200 ppm [5] | pest or weed control at 200 ppm [6]

COc1ccnc(C(=O)N[C@@H](C)C(=O)ON(C)C(C)(c2ccc(F)cc2)c2ccc(F)cc2)c1OC(C)=O [I.s.14, [1,1-bis(4-fluorophenyl)ethyl-methyl-amino] (2S)-2-[(3-acetoxy-4-methoxy-pyridine-2-carbonyl)amino] propanoate]
≥ 80%: pest or weed control at 200 ppm [1] | pest or weed control at 200 ppm [7] | inhibition at 200 ppm [2] | inhibition at 200 ppm [5]

COc1ccnc(C(=O)N[C@@H](C)C(=O)ON(C)C(c2ccc(F)cc2)c2ccc(Cl)cc2)c1O (stereo partly drawn) [I.t.01, [[(4-chlorophenyl)-(4-fluorophenyl)methyl]-methyl-amino] (2S)-2-[(3-hydroxy-4-methoxy-pyridine-2-carbonyl)amino] propanoate]
≥ 80%: pest or weed control at 200 ppm [1] | inhibition at 200 ppm [2] | inhibition at 200 ppm [3] | inhibition at 200 ppm [4] | pest or weed control at 200 ppm [6]

COc1ccnc(C(=O)N[C@@H](C)C(=O)ON(C)C(C)(c2ccc(F)cc2)c2ccc(Cl)cc2)c1O (stereo partly drawn) [I.t.02, [[1-(4-chlorophenyl)-1-(4-fluorophenyl)ethyl]-methyl-amino] (2S)-2-[(3-hydroxy-4-methoxy-pyridine-2-carbonyl)amino]propanoate]
≥ 80%: inhibition at 200 ppm [8] | inhibition at 200 ppm [2] | inhibition at 200 ppm [3] | inhibition at 200 ppm [5] | pest or weed control at 200 ppm [6]

COc1ccnc(C(=O)N[C@@H](C)C(=O)ON(C)C(c2ccc(Cl)cc2)c2ccc(Cl)cc2)c1O [I.u.01, [bis(4-chlorophenyl)methyl-methyl-amino] (2S)-2-[(3-hydroxy-4-methoxy-pyridine-2-carbonyl)amino] propanoate]
≥ 80%: pest or weed control at 200 ppm [1] | pest or weed control at 200 ppm [7] | inhibition at 200 ppm [2] | inhibition at 200 ppm [3] | inhibition at 200 ppm [5] | pest or weed control at 200 ppm [6]

COc1ccnc(C(=O)N[C@@H](C)C(=O)ON(C)C(C)(c2ccc(Cl)cc2)c2ccc(Cl)cc2)c1O [I.u.02, [1,1-bis(4-chlorophenyl)ethyl-methyl-amino] (2S)-2-[(3-hydroxy-4-methoxy-pyridine-2-carbonyl)amino]propanoate]
≥ 80%: inhibition at 200 ppm [8] | pest or weed control at 200 ppm [1] | inhibition at 200 ppm [2] | inhibition at 200 ppm [3] | inhibition at 200 ppm [4] | inhibition at 200 ppm [5]

COc1ccnc(C(=O)N[C@@H](C)C(=O)ON(C)C(C)(c2ccc(Cl)cc2)c2ccc(Cl)cc2)c1OCOC(=O)C(C)C [I.u.26, [2-[[(1S)-2-[1,1-bis(4-chlorophenyl)ethyl-methyl-amino]oxy-1-methyl-2-oxo-ethyl]carbamoyl]-4-methoxy-3-pyridyl] oxymethyl 2-methylpropanoate]
≥ 80%: inhibition at 200 ppm [8] | inhibition at 200 ppm [2] | inhibition at 200 ppm [4] | inhibition at 200 ppm [5] | pest or weed control at 200 ppm [6]

COc1ccnc(C(=O)N[C@@H](C)C(=O)ON(C)C(c2ccc(C)cc2)c2ccc(C)cc2)c1O [I.v.01, [bis-p-tolylmethyl (methyl)amino] (2S)-2-[(3-hydroxy-4-methoxy-pyridine-2-carbonyl)amino]propanoate]
≥ 80%: inhibition at 200 ppm [8] | inhibition at 200 ppm [2] | inhibition at 200 ppm [3] | inhibition at 200 ppm [4] | inhibition at 200 ppm [5] | pest or weed control at 200 ppm [6]

— US11535594B2, “Microbiocidal picolinamide derivatives” (Syngenta Participations AG, priority 2017, dated 2022)
